Test results: the NIST ThermoML archive (doi:10.1016/j.jct.2012.11.032)
Numbers after ± are expanded uncertainties.

Assay: xn = mol fraction of the nth substance listed
Settings: 101 kPa, Liquid; for speed of sound: Sing-around technique in a fixed-path interferometer; for mass density: Vibrating tube method

CCCCCCCCCCn1cc[n+](C)c1.[Cl-] [1-decyl-3-methylimidazolium chloride] + O
Settings | mass density, 283 K [kg/m3] | mass density, 288 K [kg/m3] | mass density, 293 K [kg/m3] | speed of sound, 283 K [m/s] | speed of sound, 288 K [m/s] | speed of sound, 293 K [m/s] | speed of sound, 298 K [m/s]
x1 = 0.000105 | 999.733 ± 0.1 | 999.142 ± 0.1 | 998.25 ± 0.1 | 1449.9 ± 1.2 | 1467.8 ± 1.2 | 1483.9 ± 1.2 | 1498 ± 1.2
x1 = 0.000185 | 999.76 ± 0.1 | 999.164 ± 0.1 | 998.269 ± 0.1 | 1451.1 ± 1.2 | 1468.9 ± 1.2 | 1484.9 ± 1.2 | 1498.9 ± 1.2
x1 = 0.000277 | 999.776 ± 0.1 | 999.176 ± 0.1 | 998.279 ± 0.1 | 1452.4 ± 1.2 | 1470.2 ± 1.2 | 1486 ± 1.2 | 1500 ± 1.2
x1 = 0.000377 | 999.82 ± 0.1 | 999.206 ± 0.1 | 998.297 ± 0.1 | 1453.9 ± 1.2 | 1471.5 ± 1.2 | 1487.2 ± 1.2 | 1501.1 ± 1.2
x1 = 0.000452 | 999.839 ± 0.1 | 999.216 ± 0.1 | 998.301 ± 0.1 | 1454.6 ± 1.2 | 1472.4 ± 1.2 | 1488.1 ± 1.2 | 1501.8 ± 1.2
x1 = 0.000546 | 999.878 ± 0.1 | 999.247 ± 0.1 | 998.325 ± 0.1 | 1455.8 ± 1.2 | 1473.5 ± 1.2 | 1489.2 ± 1.2 | 1502.8 ± 1.2
x1 = 0.000728 | 999.945 ± 0.1 | 999.3 ± 0.1 | 998.361 ± 0.1 | 1458.5 ± 1.2 | 1476 ± 1.2 | 1491.4 ± 1.2 | 1504.9 ± 1.2
x1 = 0.000836 | 999.997 ± 0.1 | 999.347 ± 0.1 | 998.402 ± 0.1 | 1460.3 ± 1.2 | 1477.5 ± 1.2 | 1492.8 ± 1.2 | 1506.1 ± 1.2
x1 = 0.001002 | 1000.05 ± 0.1 | 999.38 ± 0.1 | 998.424 ± 0.1 | 1462.6 ± 1.2 | 1479.5 ± 1.2 | 1494.6 ± 1.2 | 1507.7 ± 1.2
x1 = 0.001099 | 1000.05 ± 0.1 | 999.375 ± 0.1 | 998.408 ± 0.1 | 1463.7 ± 1.2 | 1480.5 ± 1.2 | 1495.4 ± 1.2 | 1508.4 ± 1.2
x1 = 0.00118 | 1000.1 ± 0.1 | 999.412 ± 0.1 | 998.437 ± 0.1 | 1464.7 ± 1.2 | 1481.3 ± 1.2 | 1496.1 ± 1.2 | 1509 ± 1.2
x1 = 0.001259 | 1000.11 ± 0.1 | 999.417 ± 0.1 | 998.436 ± 0.1 | 1465 ± 1.2 | 1481.7 ± 1.2 | 1496.5 ± 1.2 | 1509.4 ± 1.2
x1 = 0.001351 | 1000.13 ± 0.1 | 999.423 ± 0.1 | 998.434 ± 0.1 | 1465.9 ± 1.2 | 1482.5 ± 1.2 | 1497.1 ± 1.2 | 1509.9 ± 1.2
x1 = 0.001452 | 1000.14 ± 0.1 | 999.42 ± 0.1 | 998.423 ± 0.1 | 1466.5 ± 1.2 | 1483 ± 1.2 | 1497.6 ± 1.2 | 1510.3 ± 1.2
x1 = 0.001539 | 1000.14 ± 0.1 | 999.421 ± 0.1 | 998.415 ± 0.1 | 1467.1 ± 1.2 | 1483.4 ± 1.2 | 1497.9 ± 1.2 | 1510.6 ± 1.2
x1 = 0.001631 | 1000.14 ± 0.1 | 999.412 ± 0.1 | 998.403 ± 0.1 | 1467.9 ± 1.2 | 1483.9 ± 1.2 | 1498.3 ± 1.2 | 1510.9 ± 1.2
x1 = 0.001869 | 1000.13 ± 0.1 | 999.393 ± 0.1 | 998.372 ± 0.1 | 1468.9 ± 1.2 | 1484.8 ± 1.2 | 1499 ± 1.2 | 1511.5 ± 1.2
x1 = 0.001988 | 1000.13 ± 0.1 | 999.38 ± 0.1 | 998.354 ± 0.1 | 1469.3 ± 1.2 | 1485.2 ± 1.2 | 1499.4 ± 1.2 | 1511.8 ± 1.2
